“And” between values parts separate entries of the source, which are not always exact repeats. Equal values may be shown once. Read-outs that look alike come from different tables or passages of the source.
Experiments:
P. aeruginosa = assay: MIC, broth microdilution, CDC/FDA Antibiotic Resistance Isolate Bank (Example 7, Tables 10, 15); type: cell-based
A. baumannii = assay: MIC, broth microdilution, CDC/FDA Antibiotic Resistance Isolate Bank (Example 7, Tables 9, 13, 14); type: cell-based, Acinetobacter baumannii

In the case of colistin, the MIC (P. aeruginosa; P. aeruginosa KUB No. 5787, AR Bank # 441) is reported as 0.5 µg/mL, the MIC (P. aeruginosa; P. aeruginosa KUB No. 5788, AR Bank # 443) is reported as 1 µg/mL and the MIC (P. aeruginosa; P. aeruginosa KUB No. 5789, AR Bank # 444) is reported as 1 µg/mL. It also gave an MIC (P. aeruginosa; P. aeruginosa KUB No. 5790, AR Bank # 445) of 1 µg/mL, an MIC (P. aeruginosa; P. aeruginosa KUB No. 5793, AR Bank # 449) of 1 µg/mL and an MIC (P. aeruginosa; P. aeruginosa KUB No. 5798, AR Bank # 455) of 0.25 µg/mL. The MIC (P. aeruginosa; P. aeruginosa KUB No. 5799, AR Bank # 456) was 1 µg/mL, the MIC (P. aeruginosa; P. aeruginosa KUB No. 5800, AR Bank # 457) was 0.5 µg/mL and the MIC (P. aeruginosa; P. aeruginosa KUB No. 5801, AR Bank # 458) was 0.5 µg/mL. It also gave an MIC (P. aeruginosa; P. aeruginosa KUB No. 5802, AR Bank # 459) of 0.5 µg/mL, an MIC (P. aeruginosa; P. aeruginosa KUB No. 5804, AR Bank # 862) of 1 µg/mL and an MIC (P. aeruginosa; P. aeruginosa KUB No. 5805, AR Bank # 863) of 1 µg/mL. For the same substance, the MIC (P. aeruginosa; P. aeruginosa KUB No. 5806, AR Bank # 864) was 1 µg/mL, the MIC (P. aeruginosa; P. aeruginosa KUB No. 5813, AR Bank # 508) was 0.0005 µg/mL and the MIC (P. aeruginosa; P. aeruginosa KUB No. 5814, AR Bank # 509) was 0.001 µg/mL. It also gave an MIC (P. aeruginosa; P. aeruginosa KUB No. 5815, AR Bank # 510) of 0.0005 µg/mL, an MIC (P. aeruginosa; P. aeruginosa KUB No. 5816, AR Bank # 511) of 0.0005 µg/mL and an MIC (P. aeruginosa; P. aeruginosa KUB No. 5817, AR Bank # 512) of 0.001 µg/mL. It also gave an MIC (P. aeruginosa; P. aeruginosa KUB No. 5818, AR Bank # 513) of 0.001 µg/mL, an MIC (P. aeruginosa; P. aeruginosa KUB No. 5819, AR Bank # 514) of 0.001 µg/mL and an MIC (P. aeruginosa; P. aeruginosa KUB No. 5820, AR Bank # 515) of 0.001 µg/mL. The MIC (P. aeruginosa; P. aeruginosa KUB No. 5821, AR Bank # 516) was 0.001 µg/mL, the MIC (P. aeruginosa; P. aeruginosa KUB No. 5823, AR Bank # 518) was 0.001 µg/mL and the MIC (P. aeruginosa; P. aeruginosa KUB No. 5831, AR Bank # 526) was 0.001 µg/mL. It also gave an MIC (P. aeruginosa; P. aeruginosa KUB No. 5832, AR Bank # 527) of 0.0005 µg/mL, an MIC (P. aeruginosa; P. aeruginosa KUB No. 5833, AR Bank # 528) of 0.001 µg/mL and an MIC (P. aeruginosa; P. aeruginosa KUB No. 5834, AR Bank # 529) of 0.001 µg/mL. For the same substance, the MIC (A. baumannii) was 0.5 µg/mL and 1 µg/mL, the MIC50 (A. baumannii; 55 isolates of A. baumannii) was 1 µg/mL and the MIC80 (A. baumannii; 55 isolates of A. baumannii) was 2 µg/mL. The MIC90 (A. baumannii; 55 isolates of A. baumannii) was 2 µg/mL, the MIC (A. baumannii; A. baumannii KUB No. 5567, AR Bank #70, OXA-58, OXA-100) was 0.25 µg/mL and the MIC (A. baumannii; A. baumannii KUB No. 5575, AR Bank #78, OXA-71) was 1 µg/mL. For the same substance, the MIC (A. baumannii; A. baumannii KUB No. 5580, AR Bank #83, OXA-23, OXA-69, NDM-1) was 1 µg/mL, the MIC (A. baumannii; A. baumannii KUB No. 5585, AR Bank #88, OXA-64, NDM-1) was 1 µg/mL and the MIC (A. baumannii; A. baumannii KUB No. 5598, AR Bank #101, OXA-24, OXA-65) was 1 µg/mL. It also gave an MIC (A. baumannii; A. baumannii KUB No. 5599, AR Bank #102, OXA-66) of 1 µg/mL, an MIC (A. baumannii; A. baumannii KUB No. 5706, AR Bank #273, OXA-23, OXA-66) of 1 µg/mL and an MIC (A. baumannii; A. baumannii KUB No. 5707, AR Bank #274, OXA-66, OXA-72) of 0.5 µg/mL. It also gave an MIC (A. baumannii; A. baumannii KUB No. 5708, AR Bank #275, OXA-23, OXA-66) of 1 µg/mL, an MIC (A. baumannii; A. baumannii KUB No. 5709, AR Bank #276, no carbapenemase genes (-)) of 2 µg/mL and an MIC (A. baumannii; A. baumannii KUB No. 5710, AR Bank #277, OXA-24, OXA-65) of 0.5 µg/mL. For the same substance, the MIC (A. baumannii; A. baumannii KUB No. 5711, AR Bank #278, OXA-23, OXA-66) was 1 µg/mL, the MIC (A. baumannii; A. baumannii KUB No. 5712, AR Bank #279, OXA-23, OXA-66) was 1 µg/mL and the MIC (A. baumannii; A. baumannii KUB No. 5713, AR Bank #280, OXA-66) was 1 µg/mL. For the same substance, the MIC (A. baumannii; A. baumannii KUB No. 5714, AR Bank #281, OXA-82) was 1 µg/mL, the MIC (A. baumannii; A. baumannii KUB No. 5715, AR Bank #282, OXA-23, OXA-66) was 1 µg/mL and the MIC (A. baumannii; A. baumannii KUB No. 5716, AR Bank #283, OXA-23, OXA-66) was 1 µg/mL. The MIC (A. baumannii; A. baumannii KUB No. 5717, AR Bank #284, OXA-24, OXA-65) was 1 µg/mL, the MIC (A. baumannii; A. baumannii KUB No. 5718, AR Bank #285, OXA-24, OXA-65) was 0.5 µg/mL and the MIC (A. baumannii; KUB No. 5719, AR Bank #286) was 1 µg/mL. For the same substance, the MIC (A. baumannii; KUB No. 5720, AR Bank #287) was 1 µg/mL, the MIC (A. baumannii; KUB No. 5721, AR Bank #288) was >64 µg/mL and the MIC (A. baumannii; KUB No. 5722, AR Bank #259) was 2 µg/mL. The MIC (A. baumannii; KUB No. 5723, AR Bank #290) was 1 µg/mL, the MIC (A. baumannii; KUB No. 5724, AR Bank #291) was 1 µg/mL and the MIC (A. baumannii; KUB No. 5725, AR Bank #292) was 1 µg/mL. The MIC (A. baumannii; KUB No. 5726, AR Bank #293) was 1 µg/mL, the MIC (A. baumannii; KUB No. 5727, AR Bank #294) was 1 µg/mL and the MIC (A. baumannii; KUB No. 5728, AR Bank #295) was 1 µg/mL. The MIC (A. baumannii; KUB No. 5729, AR Bank #296) was 2 µg/mL, the MIC (A. baumannii; KUB No. 5730, AR Bank #297) was 2 µg/mL and the MIC (A. baumannii; KUB No. 5731, AR Bank #298) was 0.5 µg/mL. For the same substance, the MIC (A. baumannii; KUB No. 5732, AR Bank #299) was 2 µg/mL, the MIC (A. baumannii; KUB No. 5733, AR Bank #300) was 1 µg/mL and the MIC (A. baumannii; KUB No. 5734, AR Bank #301) was 1 µg/mL. The MIC (A. baumannii; KUB No. 5735, AR Bank #302) was 1 µg/mL, the MIC (A. baumannii; KUB No. 5736, AR Bank #303) was >64 µg/mL and the MIC (A. baumannii; KUB No. 5737, AR Bank #304) was 4 µg/mL. The MIC (A. baumannii; KUB No. 5738, AR Bank #305) was 2 µg/mL, the MIC (A. baumannii; KUB No. 5739, AR Bank #306) was 1 µg/mL and the MIC (A. baumannii; KUB No. 5740, AR Bank #307) was 2 µg/mL. For the same substance, the MIC (A. baumannii; KUB No. 5741, AR Bank #308) was 1 µg/mL, the MIC (A. baumannii; KUB No. 5742, AR Bank #309) was 2 µg/mL and the MIC (A. baumannii; KUB No. 5743, AR Bank #310) was 1 µg/mL. It also gave an MIC (A. baumannii; KUB No. 5744, AR Bank #311) of 1 µg/mL, an MIC (A. baumannii; KUB No. 5745, AR Bank #312) of 1 µg/mL and an MIC (A. baumannii; KUB No. 5746, AR Bank #313) of 2 µg/mL.

— patent EP4635500A1, “THERAPEUTIC AGENT FOR BACTERIAL INFECTION” (Sumitomo Pharma Co., Ltd., priority 2022, dated 2024)
